Test results published in patent publication US12677850B2, “Stevia blends containing rebaudioside B” (Tate & Lyle Solutions USA LLC, priority 2011, dated 2026).

Tests used:
[1] = test system: panelists (descriptive panel); assay: Descriptive panel: flavor attributes and intensities as a function of rebaudioside B content (Example 6); type: in vivo, human; conditions: for Anise, comparison between the samples / Artificial Sweetener/Chemical, comparison between the samples / Sweetness, comparison between the samples / Total Flavor, comparison between the samples / True Bitter, comparison between the samples / Mouthcoating, comparison between the samples / Total Off Flavor, comparison between the samples: significant at the 95% confidence level
Experimental: A descriptive panel was used to quantify flavor attributes and intensities of varying levels of rebaudioside B added to rebaudioside A (which was 97% pure and contained 0.62% rebaudioside B). […] An 8% sucrose solution as a control. The solutions were prepared in neutral pH water. Other high intensity sweeteners included in the testing were Aspartame at 500 ppm, ASK at 750 ppm, Sucralose at 250 ppm, and Stevia at 500 ppm.
Before conducting the testing the ten panelists were extensively trained in the use of standardized vocabulary to describe the appearance, aroma, flavor, and texture of a wide variety of products in order to rate the samples for sweetness, bitterness, off flavor, chemical or artificial sweetener flavor, anise, and mouth coating. Each such attribute was evaluated on a first and second sip, and on after-taste. The testing began with a session to orient the panelists during which they tasted the samples and discussed the flavor characteristics. They also tasted and discussed references for “sweet”, “bitter”, and “anise”.
During the second and third days of testing, the panelists evaluated the samples for the various attributes and rated them on a scale from none to extreme that encompasses all food ingredient products, not just sweeteners. The products and solutions set forth in Table 19 were used to “anchor” the panelist to the scales.
Eight samples were evaluated per session. A 7 minute rest break was given between each sample and a 15 minute break was given after the first 4 samples had been evaluated. Two evaluations (i.e. replicates) were obtained from each panelist for each product; therefore, a total of 20 judgments were obtained for each product. During data collection, the panelists were instructed to indicate the intensity of each sensory characteristic by placing a vertical slash on 15-cm line scales. The serving order was balanced, with products seen approximately an equal number of times in each possible position. In the waiting room, ambient Alhambra drinking water, unsalted soda crackers, and celery were provided for cleansing the palate between samples.
Slash marks on the line scales were converted to numbers ranging from 1 to 15 by SIMS, the computerized sensory data collection system. Mean intensities were calculated for each sensory characteristic. Analysis of Variance and Duncan's Multiple Range Test, where appropriate, were used to determine significant differences among the samples for each attribute. When panelist-by-product interactions were significant, the mean square of the interaction term, instead of the mean square of the error term, was used in calculation of the product F values.
The flavor attributes were also compared between the samples.

[2] = type: physicochemical; conditions: pH 3
Experimental: To determine the solubility of rebaudioside A and rebaudioside B in certain solutions, four stock solutions were prepared. A 10× concentrated citric acid/sodium citrate pH 3 stock buffer solution was prepared by dissolving 0.9 g anhydrous citric acid and 0.26 g of sodium citrate dihydrate in water to make 100 mL of buffer (0.047 M citric acid+0.0088 M sodium citrate). A 2500 ppm (nominal) solution of rebaudioside A was prepared by dissolving 0.125 g of GLG RA 97 to make 50 mL of solution. A 2500 ppm (nominal) solution of stevioside was prepared by dissolving 0.125 g of GLG STV 97 to make 50 mL of solution. A 1000 ppm (nominal) solution of rebaudioside B was prepared by diluting 56 mL of a solution assayed at 1790 ppm to make 100 mL of solution.
These solutions were mixed as 1 mL total amounts by micropipetting the volumes, in microliters, into 1.5 mL microcentrifuge tubes As shown in Table 14.
After standing for […] (~100 hours), the tubes were spun in a bench top microcentrifuge to pelletize the precipitate. The clear supernate was sampled into vials and assayed for glycosides using a reverse phase high performance liquid chromatograph (HPLC) gradient method with UV detection (Waters 2695 Separations Module equipped with a Waters 2487 Dual X Absorbance Detector or equivalent instrumentation) that is summarized in Table 15. The HPLC conditions were as follows:
The supernatant data collected from the HPLC were processed using DESIGN EXPERT 8 software. Briefly, the data were entered into the program as “factor” data as a 2 factor-5 level general factorial design as the nominal data which were then converted to numerical data and replaced by the actual HPLC results. The software then selected a model that predicted the concentration (solubility) of rebaudioside B as a function of the concentration of rebaudioside A and stevioside in the supernatant. The software also calculated a number of statistical factors that indicated the significance of the model parameters.

[3] = test system: Tate & Lyle employees (taste panel); assay: Paired comparison test for sweetness and preference in pH 3.1 citric acid buffer (Examples 1 and 2); type: in vivo, human
Experimental: A commercial blend of a steviol glycosides was dissolved in 0.0056 M citric acid buffer pH 3.1. A solution containing a commercially available sweetening composition containing 97% rebaudioside A was similarly prepared. Thirty-one […] employees participated in paired comparison tests for sweetness and preference. The products were made up in pH 3.1 citric acid buffer (0.9 grams anhydrous citric […], Decatur, IL) and 026 grams sodium citrate dihydrate ([…], Decatur, IL) per liter and tested at room temperature in two ounce soufflé cups label with random three-digit codes. The presentation order was rotated. The panelists were asked to identify the solution that was sweeter and which they like better. The ballot was presented and the data was collected with SIMS sensory software (Sensory Computer Systems, LLC, Morristown, NJ). Bottled water, a 2% sucrose solution, and unsalted crackers were available for the panelists to clear their palates before and during testing. The results of the sweetness and preference questions were analyzed with the binomial test and the Thurstonian d' calculated. The p-value for a one-tailed binomial test is calculated as [formula] where c is the number of successes, n is the number of trials, and p0 is the chance probability. A test is considered statistically significant when the p-value is less than the a priori set alpha risk. The two-tailed p-value is double the one-tailed p-value as calculated above. Thurstonian d' is a linear measure of psychophysical difference. A d' of 1 is generally considered to be a just-noticeable-difference (JND) where a stimulus will be judge stronger in 75% of the trials. The Thurstonian d' is independent of test method and for paired comparison tests is calculated as pc=Φ(d'/√{square root over (2)}) where pc is the proportion of successes, and Φ(•) is the cumulative distribution function of the standard normal distribution. These statistical terms are more fully defined in standard textbooks on the subject such as “Sensory Discrimination Tests and Measurements”, Jian Bi (Blackwell Publishing, 2006). The instructions for the paired comparison test were: • (i) It is important that you rinse before and between samples. • (ii) Clear your palate with a bite of cracker. Then rinse with the sugar water. […] Pick the sample that you like more and pick the sample that is sweeter. They may or may not be the same sample. If you are not sure or don't have a preference then pick either one. The questions for the paired comparison test were: • (i) Which of these two samples do you like more?, • (ii) Which of the two samples is sweeter? The glycoside blend of a steviol glycosides was dissolved in 0.0056 M citric acid buffer pH 3.1. A solution containing a commercially available sweetening composition containing 97% rebaudioside A was similarly prepared. The two solutions were presented to a panel of […] employees and they were asked to identify the solution that was sweeter and which they like better using the same instructions and questions as set forth above. The results of the sweetness and preference questions were analyzed with the binomial test and the Thurstonian d' calculated as set forth above. A taste panel was asked to compare a commercial mixture of rebaudioside A and stevioside to a 500 ppm sample of 97% rebaudioside A. The glycoside blend of steviol glycosides was dissolved in 0.0056 M citric acid buffer pH 3.1. A solution containing a commercially available sweetening composition containing 97% rebaudioside A was similarly prepared. Sample presentation was rotated and the samples of the two solutions (at room temperature) were presented to a panel of […] employees and they were asked to identify the solution that was sweeter and which they like better using the same instructions and questions as in Example 1. […] Another panel was asked to compare a mixture of rebaudioside B and Stevioside. The glycoside blend of steviol glycosides was dissolved in 0.0056 M citric acid buffer pH 3.1. […]

[4] = 900 ppm rebaudioside A+rebaudioside B in neutral pH water, 8% sucrose control, 15-cm line scale converted to 1 to 15, aftertaste
[5] = 900 ppm rebaudioside A+rebaudioside B in neutral pH water, 8% sucrose control, 15-cm line scale converted to 1 to 15, first sip
[6] = 900 ppm rebaudioside A+rebaudioside B in neutral pH water, 8% sucrose control, 15-cm line scale converted to 1 to 15, second sip
[7] = Commercial Blend (total 518 mg/l) vs 97% rebaudioside A (total 498), room temperature, 31 panelists
[8] = Rebaudioside A & stevioside blend (total 789 mg/l) vs 500 ppm 97% rebaudioside A, 41 panelists
[9] = Rebaudioside B & stevioside blend (total 801 mg/l) vs 97% rebaudioside A (500 ppm), 43 panelists
[10] = Rebaudioside B blend (total 496 mg/l, about 21% Reb B) vs 97% rebaudioside A (total 498), 38 panelists

OC[C@H]1O[C@@](CO)(O[C@H]2O[C@H](CO)[C@@H](O)[C@H](O)[C@H]2O)[C@@H](O)[C@@H]1O [Sucrose, sucrose]
ANISE: Aftertaste (mean intensity) [1, 4]: 0.13
ARTIFICIAL SWEETENER/CHEMICAL: Aftertaste (mean intensity) [1, 4]: 0.12
SWEET: Aftertaste (mean intensity) [1, 4]: 3.92
TOTAL FLAVOR: Aftertaste (mean intensity) [1, 4]: 4.32
TRUE BITTER: Aftertaste (mean intensity) [1, 4]: 0.15
ANISE: First Sip (mean intensity) [1, 5]: 0.52
ARTIFICIAL SWEETENER/CHEMICAL: First Sip (mean intensity) [1, 5]: 0.59
MOUTHCOATING: First Sip (mean intensity) [1, 5]: 0.76
SWEET: First Sip (mean intensity) [1, 5]: 8.06
TOTAL FLAVOR: First Sip (mean intensity) [1, 5]: 8.67
TOTAL OFF FLAVOR: First Sip (mean intensity) [1, 5]: 0.89
TRUE BITTER: First Sip (mean intensity) [1, 5]: 0.29
ANISE: Second Sip (mean intensity) [1, 6]: 0.41
ARTIFICIAL SWEETENER/CHEMICAL: Second Sip (mean intensity) [1, 6]: 0.41
MOUTHCOATING: Second Sip (mean intensity) [1, 6]: 0.89
SWEET: Second Sip (mean intensity) [1, 6]: 7.43
TOTAL FLAVOR: Second Sip (mean intensity) [1, 6]: 7.86
TOTAL OFF FLAVOR: Second Sip (mean intensity) [1, 6]: 0.49
TRUE BITTER: Second Sip (mean intensity) [1, 6]: 0.24
Anise, comparison between the samples ([1]; aftertaste): Lowest
Artificial Sweetener/Chemical, comparison between the samples ([1]; aftertaste): Lowest
Sweetness, comparison between the samples ([1]; aftertaste): Lowest
Total Flavor, comparison between the samples ([1]; aftertaste): Lowest
True Bitter, comparison between the samples ([1]; aftertaste): Lowest
Anise, comparison between the samples ([1]; first sip): Lowest
Artificial Sweetener/Chemical, comparison between the samples ([1]; first sip): Lowest
Mouthcoating, comparison between the samples ([1]; first sip): Lowest
Sweetness, comparison between the samples ([1]; first sip): Lowest
Total Flavor, comparison between the samples ([1]; first sip): Lowest
Total Off Flavor, comparison between the samples ([1]; first sip): Lowest
True Bitter, comparison between the samples ([1]; first sip): Lowest
Anise, comparison between the samples ([1]; second sip): Lowest
Artificial Sweetener/Chemical, comparison between the samples ([1]; second sip): Lowest
Mouthcoating, comparison between the samples ([1]; second sip): Lowest
Total Flavor, comparison between the samples ([1]; second sip): Lowest
Total Off Flavor, comparison between the samples ([1]; second sip): Lowest
True Bitter, comparison between the samples ([1]; second sip): Lowest

C=C1C[C@@]23CC[C@H]4[C@@](C)(CCC[C@@]4(C)C(=O)O[C@@H]4O[C@H](CO)[C@@H](O)[C@H](O)[C@H]4O)[C@@H]2CC[C@]1(O[C@@H]1O[C@H](CO)[C@@H](O)[C@H](O)[C@H]1O[C@@H]1O[C@H](CO)[C@@H](O)[C@H](O)[C@H]1O)C3 [stevioside]
effect of its presence on the solubility of rebaudioside B [2]: slightly reduces

rebaudioside A [97% rebaudioside A]
# preferring [3, 7]: 20
# sweeter [3, 7]: 15
# preferring [3, 8]: 37
# sweeter [3, 8]: 19
# preferring [3, 9]: 22
# sweeter [3, 9]: 13
# preferring [3, 10]: 11
# sweeter [3, 10]: 11
